The text below walks through data of PMC8192908 (Scientific Reports, 2021).

As usually defined, the Kd is a measure of binding affinity in units of concentration.

Several values for one entry are separate records, joined by “and”; a condition that tells them apart may be missing. Equal entries are not always repeated. Where two headings read alike, the source gives them in different places. Marks after values point to notes of the source that are not given here.

The test system of data set [1] is tyrosine phosphorylated sperm proteins. The data set can be described thus: Tyrosine phosphorylation of sperm proteins by immunofluorescence. Particulars: PTX 1 mM, PTXm-1 0.25 mM; control 16%. Type of data set: cell-based, human. Here is the method: The cells were incubated with blocking solution (PBS containing 1% BSA and 0.1% Tween-20) for 1 h followed by incubation at 4 °C overnight with anti phospho-tyrosine antibody (1:300 dilution, Clone PY20, Merck Millipore, Cat. No. 05–947). […] No. S6MQT0101), cells were counterstained with DAPI and observed under fluorescence microscope (1000x, oil immersion). The number of tyrosine phosphoprotein positive spermatozoa were counted in total of 500 spermatozoa and the result was expressed in percentage spermatozoa.

The target of the next data set is T1, PDE10A-PTXm-1 complex (Homo sapiens, UniProt Q9Y233).
T1 construct: Catalytic domain of each protein was cloned between BamHI and XhoI restriction sites in; 6xHis-SUMO (N, cleaved yes); made in house; host or cells: E. coli Rosetta 2 (DE3)
Kind of data set: Competitive ITC: PTX titrated against PDE10A-PTXm-1 complex. It is filed as binding.

The subject of the next data set is testicular spermatozoa. The data set can be described thus: Twitching motility of testicular spermatozoa. It is filed as cell-based, human. Particulars: PTX 1 mM, PTXm-1 0.25 mM; for spermatozoa with twitching motility vs control: increased incubation time (1 h). The text has this:
Testicular tissue from men diagnosed with prostate cancer and admitted for orchiectomy (N = 8, age 74.33 ± 5.61 years) were collected from Urology operation theater in sterile PBS. The testis was transferred to Petri dish, washed in phosphate buffered solution (PBS) and cut into small pieces. Seminiferous tubule contents were released into the Petri dish containing EBSS medium with 0.1% BSA by milking the seminiferous tubules with the help of with the help of sterile glass slides. The cell suspension was screened for the presence of testicular spermatozoa under inverted microscope (200 × magnification). The cell suspension was divided into four equal parts- (a) Control (C): […] (b) Vehicle control (VC): […] The testicular sperm suspension was processed by discontinuous gradient technique using 40% and 80% density solutions ([…], Germany). The discontinuous gradient column was prepared by adding 1 mL of 80% and 40% gradient solutions sequentially in a sterile test tube. The testicular cell suspension was carefully added above the gradients and centrifuged at 500 g for 20 min. The pellet obtained after centrifugation was further washed by centrifuging at 400 g for 8 min twice.

The subject of data set [2] is Oct4, Sox2, Nanog, Cdx2 in blastocysts. Kind of data set: mRNA expression of pluripotency and trophectoderm genes in blastocysts. It is filed as cell-based, Swiss albino mice. Particulars: PTX 1 mM, PTXm-1 0.25 mM. Here is the method: RNA was extracted from blastocyst stage embryos (30 per group) using an RNA isolation aqueous micro kit (Catalogue No. AM1931; Ambion, Foster City, CA, USA) as explained. Briefly, embryos were lysed using lysis buffer to release total RNA and was eluted using elution buffer. RNA obtained was treated with DNase for 20 min at 37 °C and stored at − 80 °C. cDNA was synthesized using a Superscript first strand cDNA synthesis kit for reverse transcription polymerase chain reaction (Catalogue No. E6300; NewEngland Biolabs, Ipswich, MA, USA).
Quantitative PCR for relative expression of Sox2, Nanog, and Oct4 mRNA was done using StepOne real-time PCR system (Applied Biosystems, California, USA) with TaqMan® Gene Expression Assay probes and TaqMan® Fast Advanced MixThe relative mRNA expression of Cdx2 was also estimated using real-time PCR system with SYBER Green chemistry (TaKaRa, Shiga, Japan, Cat. No. RR420A). All the data were normalized with GAPDH housekeeping gene as an internal control. The relative expression levels were calculated in terms of fold change. The IDs for TaqMan® Gene Expression Assay probes used in this study and the specific primers used for Cdx2 gene and GAPDH housekeeping gene are given in Supplementary Table S1.

Data set [3] has as its system intracellular cAMP in spermatozoa. The data set can be described thus: Intracellular cAMP in spermatozoa. It is filed as cell-based, human. Particulars: 1 h after incubation; PTX 1 mM, PTXm-1 0.25 mM. Here is the method:
Sperm suspension was centrifuged at 800 g for 10 min and supernatant obtained was frozen at − 80 °C until further analysis. The cAMP level was measured using cAMP test kit as explained by the manufacturers (Elabscience®, Cat. No. E-EL-0056) as described in our earlier report. Briefly, 50 μL of cAMP detection standard or test samples were added to each well of the multi well plate, followed by addition of biotinylated detection solution (50 μL). After 45 min of incubation at 37 °C, the solutions from each well were decanted. The wells of the plate were further washed 3 times using wash buffer and then incubated with 100 μL horse radish peroxidase (HRP) conjugate for 30 min at 37 °C. Further, each well of the multi well plate was washed repeatedly (5 times) and then incubated with 90 μL substrate reagent for 15 min at 37 °C. Finally, the reaction was stopped by adding 50 μL of stop solution and, immediately OD450nm of the each well was measured using Skanit software 5.0 (Multiskan, Photometer, Thermoscientific). The assay was performed in duplicates and standard curve was plotted. The concentration of cAMP was extrapolated from the standard curve.

For data set [4], the system named is spermatozoa, oocytes and embryos of Swiss albino mice. Kind of data set: In vitro fertilization and pre-implantation embryo development. It is filed as cell-based. Particulars: for Total cell number (Mean ± SE): blastocysts, PTX 1 mM, PTXm-1 0.25 mM, control 92.78 ± 6.58; for Hatching rate at 120 h post insemination / Blastocyst rate at 120 h post insemination / Fertilization rate at 16 h post insemination: sperm treated with PTX 1 mM or PTXm-1 0.25 mM; for Hatching rate at 120 h post insemination: control 64.56; for Blastocyst rate at 120 h post insemination: control 81.67; for Fertilization rate at 16 h post insemination: control 83.56. Here is the method:
The adult female Swiss albino mice were stimulated using 5 IU of pregnant mare serum gonadotropin (PMSG) and 10 IU of human chorionic gonadotropin (hCG) at an interval of 48 h. At 13 h post hCG administration, the cumulus oocyte complexes (COCs) were collected by teasing the oviduct into M2 medium. To assess the effect of PTXm-1 on fertilization outcome and the early embryo development, Swiss albino mice were used. The male mice (6 to 8 weeks, N = 6 per trial, total 3 trials) were humanely sacrificed by cervical dislocation and cauda was dissected out. The IVF was performed as described in our earlier report. Briefly, the cauda was teased in a Petri dish containing EBSS (with 0.1% BSA) culture media and incubated at 37 °C, 5% CO2 incubator. After 2 h of incubation, the spermatozoa were collected and divided equally into 4 parts as C, VC, […] and PTXm-1 groups. The sperm suspension was centrifuged at 250 g for 8 min and the supernatant was discarded. […] The overlay containing motile sperm fraction of were collected carefully without disturbing the pellet, and were used for preparation of insemination droplets (80 µL) which was covered with paraffin oil (Cat. No. 61822605001730, Merck, Germany). The female mice were sacrificed humanely by cervical dislocation (N = 12 per trial, total 3 trials). […] […] Blastocyst rate, hatching rate and, DNA damage and total cell number was assessed in blastocysts.

Another data set relates to mouse bone marrow cells. Particulars: cited from earlier work.
Setting [5] is: 15 min after incubation, control 5.06 ± 0.98%.

T1 sequence (Q9Y233 718-1035 limits assumed, one chain of several): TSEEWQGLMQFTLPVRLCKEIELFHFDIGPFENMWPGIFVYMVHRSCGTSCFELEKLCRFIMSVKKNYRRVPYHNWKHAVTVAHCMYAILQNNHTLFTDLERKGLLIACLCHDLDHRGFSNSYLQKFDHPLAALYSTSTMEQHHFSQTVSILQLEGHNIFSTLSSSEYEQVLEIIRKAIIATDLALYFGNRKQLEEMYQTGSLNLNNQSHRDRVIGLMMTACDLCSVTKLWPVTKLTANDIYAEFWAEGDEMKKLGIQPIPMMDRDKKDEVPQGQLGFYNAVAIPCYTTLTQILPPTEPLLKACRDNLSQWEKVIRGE

Consider `COc1ccc2cc(/C=C/C(=O)CCCCn3c(=O)c4c(ncn4C)n(C)c3=O)ccc2c1` [PTXm-1], for which the “spermatozoa with tyrosine phosphorylated proteins” value in data set [1] was found to be 23.25%. The “decrease of the binding affinity of PTX towards PDE10A in presence of PTXm-1” value at PDE10A-PTXm-1 complex (PDE10A-PTXm-1 2:1 molar ratio) is “~ eight-fold decrease”. Also, the “spermatozoa with twitching motility” value in the data set with testicular spermatozoa (setting [5]) is given as 9.95 ± 0.79%. In addition, in the data set with testicular spermatozoa (24 h incubation), the “spermatozoa with twitching motility” value turned out to be 13.39 ± 0.65%. Also, the “spermatozoa with twitching motility vs control” value in the data set with testicular spermatozoa was “significantly higher (P < 0.001)”. In data set [2], the “expression of pluripotency genes in blastocysts” value is reported as “did not differ between the groups”. The “intracellular cAMP level vs control and vehicle control” value in data set [3] is given as “significantly higher”. Further, in data set [4], the “Total cell number (Mean ± SE)” value is recorded as 93.23 ± 8.56^e; the “Hatching rate at 120 h post insemination” value was 66.89^b,d %; the “Blastocyst rate at 120 h post insemination” value is reported as 88.45^b,d %; the “Fertilization rate at 16 h post insemination” value is 96.25% and 96.25^b,c %. In the data set with mouse bone marrow cells (mouse, in vivo), the “cytotoxic effect on mouse bone marrow cells” value is recorded as “do not have any cytotoxic effect”.
Take `CC(=O)CCCCn1c(=O)c2c(ncn2C)n(C)c1=O` [PTX, pentoxifylline]: the “spermatozoa with tyrosine phosphorylated proteins” value in data set [1] amounted to 24.75%. On PDE10A-PTXm-1 complex (PDE10A-PTXm-1 complex with 2:1 molar ratio), the Kd worked out at 350 µM. Besides, in the data set on testicular spermatozoa (setting [5]), the “spermatozoa with twitching motility” value came out at 11.78 ± 1.36%. In the data set on testicular spermatozoa (24 h incubation), the “spermatozoa with twitching motility” value came out at 7.90 ± 1.06%. Further, in the data set on testicular spermatozoa, the “spermatozoa with twitching motility vs control” value was “significantly higher (P < 0.001)”. Moreover, the “expression of pluripotency genes in blastocysts” value in data set [2] is reported as “did not differ between the groups”. Besides, in data set [3], the “intracellular cAMP level vs control and vehicle control” value is “significantly higher”. Also, in data set [4], the “Total cell number (Mean ± SE)” value is given as 88.91 ± 6.56^b,c; the “Hatching rate at 120 h post insemination” value was 67.56^a,c %; the “Blastocyst rate at 120 h post insemination” value is given as 86.34^a,c %; the “Fertilization rate at 16 h post insemination” value was 95.64% and 95.64^b,c %. Moreover, the “cytotoxic effect on mouse bone marrow cells” value in the data set with mouse bone marrow cells is reported as “do not have any cytotoxic effect”.
